Test results reported in patent US20150352094A1, “USE OF FATTY ACID NIACIN CONJUGATES FOR TREATING DISEASES” (CATABASIS PHARMACEUTICALS, INC., priority 2013, published 2015).

How the values were obtained:
[1] = test system: ApoB secretion in HepG2 cells; details: HepG2 cells, 50, 100 and 200 μM; compared to niacin at 5 mM
Procedure: HepG2 cells (ATCC) are seeded at 10,000 cells per well in 96 well plates. After adhering overnight, growth media (10% FBS in DMEM) is removed and cells are serum starved for 24 hours in DMEM containing 0.1% fatty acid free bovine serum albumin (BSA, Sigma). Cells are then treated with a compound. […] All treatments are performed in triplicate. Simultaneous with compound treatment, ApoB secretion is stimulated with addition of 0.1 oleate complexed to fatty acid free BSA in a 5:1 molar ratio. Incubation with a compound and oleate is conducted for 24 hours. Media supernatants are removed and ApoB concentrations are measured using ELISA kits (Mabtech AB). Percent inhibition of ApoB secretion is determined by normalizing data to vehicle treated wells. For a given compound, an IC50 (concentration at which 50% of ApoB secretion is inhibited) can also be determined by using a 4 parameter-fit inhibition curve model (Graph Pad Prism®). In each experiment, cell viability is determined using the ATPlite 1-Step kit (Perkin Elmer), such that compound effects due to cytotoxicity can be monitored.

[2] = test system: SCD (steroyl CoA desaturase); assay: SREBP-1c target gene expression in HepG2 cells (real time PCR): SCD; assay type: cell-based; details: HepG2 cells stimulated with oleate, 50 μM, 6 hours
Procedure: (§1) HepG2 cells (ATCC) were seeded at 20,000 cells per well in 96 well plates. After adhering overnight, growth media (10% FBS in DMEM) was removed and cells were serum starved for 24 hours in DMEM containing 1% fatty acid free bovine serum albumin (BSA, Sigma). […] Cells were incubated for 6 hours and then washed with PBS. RNA was reverse-transcribed using the cells to cDNA reagents according to standard protocols (outlined in Applied Biosystem StepOne Real-time PCR protocols). Real time PCR of transcripts was performed with Taqman assays for the three specific genes FASN (fatty acid synthase), SCD (steroyl CoA desaturase) and ApoA1 (apolipoprotein A1). In all three cases, 18S-VIC® was used as a normalization control.

[3] = test system: ApoA1 (apolipoprotein A1); assay: SREBP-1c target gene expression in HepG2 cells (real time PCR): ApoA1; assay type: cell-based; details: HepG2 cells stimulated with oleate, 50 μM, 6 hours
Procedure: as §1

[4] = test system: FASN (fatty acid synthase); assay: SREBP-1c target gene expression in HepG2 cells (real time PCR): FASN; assay type: cell-based; details: HepG2 cells stimulated with oleate, 50 μM, 6 hours
Procedure: as §1

Healthy human volunteers = assay: Plasma triglycerides in healthy human volunteers after NIH high fat breakfast; assay type: in vivo
Procedure: Healthy human volunteers were divided into 4 treatment groups. The first treatment group was a placebo group (n=6). The other three groups consisted a single oral dose of compound I-8 at either 300 mg (n=6), 1000 mg (n=7) or 2000 mg (n=4). All subjects were given an NIH high fat breakfast in order to induce an elevated level of triglycerides (In a typical NIH high fat breakfast, 450 calories are derived from fat). Compound I-8 was then administered as a single oral dose at the three indicated doses at three different time points: immediately following the high fat meal, 2 hours following the high fat meal and 4 hours following the high fat meal. At each of the time points, plasma triglyceride levels were determined according to standard protocols. […] Based on these dramatic effects on plasma triglycerides levels, compound I-8 and other fatty acid niacin conjugates disclosed in this invention are useful for the treatment of type I hyperlipoproteinemia and type 5 hyperlipoproteinemia.

female APOE*3Leiden mice = assay: Plasma cholesterol and triglycerides in APOE*3Leiden mice on high cholesterol Western type diet; assay type: in vivo; details: I-8 0.75% w/w in diet, atorvastatin 0.0015% w/w in diet
Procedure: The study was conducted using female APOE*3Leiden mice (groups of each n=10) and one untreated reference control group on chow (n=5). To induce dyslipidemia, a high cholesterol Western type diet containing 1% cholesterol, 15% cacao butter, 40.5% sucrose and 1% corn oil (WTD) was fed to the mice for a total experimental period of 20 weeks (of which 4 weeks are a run-in period).
The dyslipidemic mice were grouped on the basis of plasma cholesterol at t=0 assayed in 4 h fasting blood. Mice with low cholesterol after the run-in period were excluded so that homogenous experimental groups were obtained. A group of reference mice (n=5) remained on a chow diet during the complete study period (normolipidemic reference mice).
This mix was then added to the master mix (containing the rest of the ingredients) and mixed thoroughly. The diet was frozen to −20° C. On the subsequent day, the diet was broken into small pellets (approx 5 g per piece) and freeze dried, and stored in vacuum sealed bags (approx 500 g) at −20° C. until use. The diets were refreshed daily and unused diet was discarded.
EDTA plasma was collected in weeks −4, 0, 2 and 4 weeks.

Male C57BL/6 mice = assay: Liver weight gain induced by Lomitapide 10 mg/kg in mice on high fat cholesterol diet; assay type: in vivo
Excerpt: The objective of this example is to determine if 1-8, a representative compound of the present invention, can abrogate the development of hepatic steatosis induced by oral administration of the MTP inhibitor Lomitapide for 7 days in normal mice.
Male C57BL/6 mice were acclimated to the high fat cholesterol diet (D13093001; 1% cholesterol, 15% cacao butter, 40.5% sucrose and 1% corn oil (Research Diets, Inc. New Brunswick, N.J.) upon arrival at CRO facility. The test diet containing the compound (I-8) sufficient for approx. 3 kg of diet (i.e. 25 g of 1-8 from the invention), was prepared by adding the test compound to melted, hand warm cocoa butter and mixed for 5 min. This mix was then added to the master mix (containing the rest of the ingredients) and mixed thoroughly. The diet was frozen to −20° C. On the subsequent day, the diet was broken into small pellets (approx 5 g per piece) and freeze dried, and stored in vacuum sealed bags (approx 500 g) at −20° C. until used. This diet was designated D13093002. The diets were refreshed daily and unused diet is discarded. Lomitapide delivered via oral gavage formulation (10 mg/kg once daily) or vehicle was dosed as described in Table 1. The volume of each gavage dose delivered (mL/kg) was based on each individual animal's most recent recorded body weight. […]

mice = assay: Liver weight gain induced by Lomitapide 1 and 3 mg/kg in mice on high fat cholesterol diet (second study); assay type: in vivo; details: I-8 0.75% in diet from Day -7 with Lomitapide 1 or 3 mg/kg once daily, Days 1-7
Procedure: A second study was conducted with a longer predosing of 1-8 (7 days versus 3 days) and lower doses of Lomitapide (1 and 3 mg/kg once daily) as described in Table 2. Starting on Day −7 the animals in Groups 1, 2, and 4 received a high-fat cholesterol diet (D13093001, Research Diets, Inc. New Brunswick, N.J.). Similarly, starting on Day −7 the animals in Groups 3 and 5 received a high-fat cholesterol diet w/0.75% 1-8 (D13093002, Research Diets, Inc.). On day −1 all mice received an oral gavage dose of vehicle. The baseline blood sample were collected from each mouse 90 minutes after the vehicle dose and stored as plasma. The volume of each gavage dose delivered (mL/kg) was based on each individual animal's most recent recorded body weight.
Observations were recorded at least twice daily and at each sample collection time point. The presence or absence of any clinical abnormalities was recorded. Body weights were recorded on Day −7, and daily on Day −1 through Day 7 (AM). Interim blood samples were collected and a terminal blood sample was collected on Day 7 by intracardiac puncture following anesthetization with CO2. Each whole blood sample was transferred into tubes containing sodium heparin anticoagulant and placed on ice until processing. Each whole blood sample was centrifuged at 2200×g for 10 minutes at 5° C.+3° C. to isolate plasma. […]

[5] = test system: ApoB secretion in HepG2 cultures; details: media supernatants of HepG2 cultures (Jin et al. 1999); cited from earlier work
[6] = test system: ApoA1 secretion in HepG2 cultures; details: media supernatants of HepG2 cultures (Jin et al. 1997); cited from earlier work

In the case of `CC/C=C\C/C=C\C/C=C\C/C=C\C/C=C\C/C=C\CCC(=O)NCCNC(=O)c1cccnc1` [Compound I-7, N-(2-(4Z,7Z,10Z,13Z,16Z,19Z)-docosa-4,7,10,13,16,19-hexaenamidoethyl)nicotinamide], the “inhibition of ApoB secretion” value [1] is reported as “significant inhibition”, the SCD gene expression [2] is reported as “statistically significant inhibition” and the ApoA1 gene expression [3] is reported as “increase”. For the same molecule, the FASN gene expression [4] was “statistically significant inhibition”.
With `CC/C=C\C/C=C\C/C=C\C/C=C\C/C=C\CCCC(=O)NCCNC(=O)c1cccnc1` [Compound I-8, N-(2-(5Z,8Z,11Z,14Z,17Z)-eicosa-5,8,11,14,17-pentaenamidoethyl)nicotinamide] the reduction in triglycerides (Healthy human volunteers; 2 hour time point following the high fat meal) was “robust signal was still observed”, the reduction in triglycerides (Healthy human volunteers; 4 hour time point following the high fat meal) was “robust signal was still observed” and the plasma triglycerides (Healthy human volunteers; single oral dose 1000 mg, after NIH high fat breakfast) was “significant reduction”. For the same molecule, the plasma triglycerides (Healthy human volunteers; single oral dose 2000 mg, after NIH high fat breakfast) was “significant reduction”, the “effect on plasma triglycerides” value (Healthy human volunteers; single oral dose 300, 1000 or 2000 mg, after NIH high fat breakfast) was “dose-dependent effect” and the plasma cholesterol (female APOE*3Leiden mice; after 4 weeks of treatment) was “Comparable level of cholesterol reduction”. The plasma triglycerides (female APOE*3Leiden mice; after 4 weeks of treatment) was “significant reduction”, the plasma cholesterol (female APOE*3Leiden mice; t=2 weeks of treatment) was “statistically significant reduction” and the “Lomitapide-increased liver weight on cotreatment” value (Male C57BL/6 mice; I-8 0.75% in diet with Lomitapide 10 mg/kg once daily, 7 days) was “completely abrogated”. For the same molecule, the “Lomitapide-increased liver weight on cotreatment” value (mice) was “reduced”, the SCD gene expression [2] was “statistically significant inhibition” and the ApoA1 gene expression [3] was “increase”. For the same molecule, the FASN gene expression [4] was “statistically significant inhibition”.
With `O=C(NC1CCN(CCCCC2(C(=O)NCC(F)(F)F)c3ccccc3-c3ccccc32)CC1)c1ccccc1-c1ccc(C(F)(F)F)cc1` [Lomitapide, reference compound] the “increase in liver weight” value (Male C57BL/6 mice; Lomitapide alone 10 mg/kg once daily oral gavage, one week, high fat cholesterol diet) was 15%.
In the case of `O=C(O)c1cccnc1` [niacin], the “secretion of ApoB” value [5] is listed as “inhibiting” and the “secretion of ApoA1” value [6] is listed as “increase”.
